What was measured:
Experiment in all cases: combination Emax (second highest fraction inhibited in the dose matrix, 72 h); higher = more inhibition; extreme values may be limits of the assay
[1] = tested on: SNU-C2B (Colorectal Carcinoma)
Method in brief: (§1)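 Bliss excess equals the observed combination effect minus the expected value EA + EB − EA·EB, where EA and EB are the effects of each agent alone. Combination Emax is the second-highest inhibition within the matrix. Inhibition was scaled from CellTiter-Glo 2.0 luminescence, with 0 set by vehicle wells and 1 by blank wells, after 72 hours of two-drug dosing of cells plated in 1536-well plates.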

[2] = tested on: MOLP-8 (Plasma Cell Myeloma)
Method in brief: as §1

[3] = tested on: KALS-1 (Glioblastoma)
Method in brief: as §1

[4] = tested on: MDA-MB-415 (Breast Carcinoma)
Method in brief: as §1

[5] = tested on: NCI-H1876 (Small Cell Lung Carcinoma)
Method in brief: as §1

[6] = tested on: SKG-IIIa (Cervical Carcinoma)
Method in brief: as §1

[7] = tested on: MM1S (Plasma Cell Myeloma)
Method in brief: as §1

[8] = tested on: RCC-JW (Kidney Carcinoma)
Method in brief: as §1

[9] = tested on: CL-11 (Colorectal Carcinoma)
Method in brief: as §1

[10] = tested on: T47D (Breast Carcinoma)
Method in brief: as §1

[11] = tested on: AM-38 (Glioblastoma)
Method in brief: as §1

[12] = tested on: LS-1034 (Colorectal Carcinoma)
Method in brief: as §1

[13] = tested on: IST-MEL1 (Melanoma)
Method in brief: as §1

[14] = tested on: NCI-H1341 (Small Cell Lung Carcinoma)
Method in brief: as §1

[15] = tested on: NCI-H596 (Other Solid Carcinomas)
Method in brief: as §1

[16] = tested on: HT-1080 (Other Solid Carcinomas)
Method in brief: as §1

[17] = tested on: MOLT-13 (T-Lymphoblastic Leukemia)
Method in brief: as §1

[18] = tested on: SNU-407 (Colorectal Carcinoma)
Method in brief: as §1

[19] = tested on: NCI-H3118 (Head and Neck Carcinoma)
Method in brief: as §1

[20] = tested on: UACC-257 (Melanoma)
Method in brief: as §1

| Structure (SMILES) | combination Emax [1] | combination Emax [2] | combination Emax [3] | combination Emax [4] | combination Emax [5] | combination Emax [6] | combination Emax [7] | combination Emax [8] | combination Emax [9] | combination Emax [10] | combination Emax [11] | combination Emax [12] | combination Emax [13] | combination Emax [14] | combination Emax [15] | combination Emax [16] | combination Emax [17] | combination Emax [18] | combination Emax [19] | combination Emax [20] |
| --- | --- | --- | --- | --- | --- | --- | --- | --- | --- | --- | --- | --- | --- | --- | --- | --- | --- | --- | --- | --- |
| CN(C)CCCOc1ccc(-c2ccc3ncc4c(c3c2)n(C2CCOCC2)c(=O)n4C)cn1 [AZD0156] + C=CCn1c(=O)c2cnc(Nc3ccc(N4CCN(C)CC4)cc3)nc2n1-c1cccc(C(C)(C)O)n1 [AZD1775] (first compound max 1 µM, partner max 1 µM) | 0.55 | 0.721 | 0.855 | 0.177 | 0.982 | 0.203 | 0.732 | 0.221 | 0.545 | 0.343 | 0.437 | 0.289 | 0.551 | 0.675 | 0.307 | 0.331 | 0.977 | 0.358 | 0.842 | 0.14 |
| CN(C)CCCOc1ccc(-c2ccc3ncc4c(c3c2)n(C2CCOCC2)c(=O)n4C)cn1 [AZD0156] + CCN(CCO)CCCOc1ccc2c(Nc3cc(CC(=O)Nc4cccc(F)c4)[nH]n3)ncnc2c1 [AZD2811] (first compound max 1 µM, 7x7, partner max 1 µM) | 0.113 | 0.603 | 0.214 | 0.206 | 0.853 | 0.0993 | 0.34 | 0.093 | 0.0968 | 0.282 | 0.342 | 0.108 | 0.231 | 0.409 | 0.207 | 0.142 | 0.99 | 0.287 | 0.0407 | 0.119 |
| CN(C)CCCOc1ccc(-c2ccc3ncc4c(c3c2)n(C2CCOCC2)c(=O)n4C)cn1 [AZD0156] + C[C@@H]1COCCN1C2=NC(=NC(=C2)C3(CC3)[S@](=N)(=O)C)C4=C5C=CNC5=NC=C4 [AZD6738] (first compound max 1 µM, 7x7, partner max 10 µM) | 0.681 | 0.848 | 0.868 | 0.395 | 0.938 | 0.233 | 0.698 | 0.597 | 0.767 | 0.282 | 0.868 | 0.615 | 0.745 | 0.849 | 0.454 | 0.507 | 0.925 | 0.742 | 0.672 | 0.145 |
| CN(C)CCCOc1ccc(-c2ccc3ncc4c(c3c2)n(C2CCOCC2)c(=O)n4C)cn1 [AZD0156] + O=C(c1cc(Cc2n[nH]c(=O)c3ccccc23)ccc1F)N1CCN(C(=O)C2CC2)CC1 [Olaparib] (first compound max 3 µM, partner max 3 µM) | 0.239 | 0.67 | 0.135 | 0.325 | 0.807 | 0.139 | 0.881 | 0.468 | 0.358 | 0.366 | 0.45 | 0.293 | 0.228 | 0.306 | 0.41 | 0.134 | 0.397 | 0.296 | 0.305 | 0.21 |
| C=CCn1c(=O)c2cnc(Nc3ccc(N4CCN(C)CC4)cc3)nc2n1-c1cccc(C(C)(C)O)n1 [AZD1775] + C1CN(CCC1(C(=O)N[C@@H](CCO)C2=CC=C(C=C2)Cl)N)C3=NC=NC4=C3C=CN4 [Capivasertib] (first compound max 3 µM, partner max 3 µM) | 0.702 | 0.91 | 0.766 | 0.764 | 0.956 | 0.574 | 1 | 0.619 | 0.734 | 0.555 | 0.702 | 0.763 | 0.65 | 0.923 | 0.708 | 0.561 | 0.973 | 0.675 | 0.947 | 0.455 |
| C=CCn1c(=O)c2cnc(Nc3ccc(N4CCN(C)CC4)cc3)nc2n1-c1cccc(C(C)(C)O)n1 [AZD1775] + C[C@@H]1COCCN1C2=NC(=NC(=C2)C3(CC3)[S@](=N)(=O)C)C4=C5C=CNC5=NC=C4 [AZD6738] (first compound max 1 µM, partner max 10 µM) | 0.726 | 0.854 | 0.923 | 0.595 | 0.987 | 0.586 |  | 0.725 | 0.774 | 0.412 | 0.818 | 0.763 | 0.797 | 0.941 | 0.663 | 0.476 | 1 | 0.758 | 0.855 | 0.344 |
| C=CCn1c(=O)c2cnc(Nc3ccc(N4CCN(C)CC4)cc3)nc2n1-c1cccc(C(C)(C)O)n1 [AZD1775] + O=C(c1cc(Cc2n[nH]c(=O)c3ccccc23)ccc1F)N1CCN(C(=O)C2CC2)CC1 [Olaparib] (first compound max 1 µM, partner max 10 µM) | 0.601 | 0.754 | 0.896 | 0.229 | 0.968 | 0.369 | 0.779 | 0.326 | 0.584 | 0.362 | 0.496 | 0.372 | 0.49 | 0.525 | 0.431 | 0.354 | 0.975 | 0.465 | 0.889 | 0.166 |
| CCN(CCO)CCCOc1ccc2c(Nc3cc(CC(=O)Nc4cccc(F)c4)[nH]n3)ncnc2c1 [AZD2811] + C=CCn1c(=O)c2cnc(Nc3ccc(N4CCN(C)CC4)cc3)nc2n1-c1cccc(C(C)(C)O)n1 [AZD1775] (first compound max 1 µM, partner max 1 µM) | 0.554 | 0.76 | 0.841 | 0.131 | 0.991 | 0.261 | 0.776 | 0.161 | 0.612 | 0.314 | 0.377 | 0.257 | 0.504 | 0.632 | 0.346 | 0.331 | 1 | 0.416 | 0.807 | 0.154 |
| COc1nnc2ccc(N3CCC(c4ccc(OCCN5CCN(C)C(=O)[C@H]5C)cc4)CC3)nn12 [AZD5153] + CN(CC[C@H](CSC1=CC=CC=C1)NC2=C(C=C(C=C2)S(=O)(=O)NC(=O)C3=CC=C(C=C3)N4CCC(CC4)[C@H](C5=CC=CC=C5C6=CC=C(C=C6)Cl)O)S(=O)(=O)C(F)(F)F)CCO [AZD4320] (first compound max 1 µM, 7x7, partner max 1 µM) | 0.55 | 0.98 |  |  | 0.977 |  | 1 |  | 0.782 | 0.472 | 0.949 |  |  | 1 | 0.823 | 0.618 | 1 | 0.902 |  | 0.413 |
| Cc1c2c(nn1C)CSCc1cc(n(C)n1)CSc1cc(c3ccccc3c1)OCCCc1c(C(=O)O)n(C)c3c-2c(Cl)ccc13 [AZD5991] + CCN(CCO)CCCOc1ccc2c(Nc3cc(CC(=O)Nc4cccc(F)c4)[nH]n3)ncnc2c1 [AZD2811] (first compound max 1 µM, 7x7, partner max 1 µM) | 0.17 | 1 | 0.358 | 0.56 | 0.998 | 0.235 | 0.982 | 0.251 |  | 0.708 | 0.32 | 0.227 | 0.349 | 0.341 |  | 0.264 | 1 | 0.694 | 0.625 | 0.322 |
| CC(=O)c1c(C)c2cnc(Nc3ccc(N4CCNCC4)cn3)nc2n(C2CCCC2)c1=O [Palbociclib] + CN(CC[C@H](CSC1=CC=CC=C1)NC2=C(C=C(C=C2)S(=O)(=O)NC(=O)C3=CC=C(C=C3)N4CCC(CC4)[C@H](C5=CC=CC=C5C6=CC=C(C=C6)Cl)O)S(=O)(=O)C(F)(F)F)CCO [AZD4320] (first compound max 10 µM, 7x7, partner max 1 µM) | 0.599 | 0.542 |  |  | 0.926 |  | 0.964 |  | 0.759 | 0.344 | 0.872 |  |  | 0.992 | 0.521 | 0.415 | 0.975 | 0.483 |  | 0.183 |
| CCc1c2c(nc3ccc(O)cc13)-c1cc3c(c(=O)n1C2)COC(=O)[C@]3(O)CC [SN-38] + O=C(c1cc(Cc2n[nH]c(=O)c3ccccc23)ccc1F)N1CCN(C(=O)C2CC2)CC1 [Olaparib] (first compound max 0.3 µM, 7x7, partner max 10 µM) | 0.478 | 0.783 | 0.616 | 0.321 |  | 0.389 |  | 0.616 | 0.776 | 0.625 | 0.882 | 0.553 | 0.897 | 0.99 |  | 0.489 | 1 |  | 0.396 | 0.343 |
| C[C@@H](c1ccc2nccn2c1)n1nnc2ncc(-c3cnn(C)c3)nc21 [Savolitinib] + CN(CC[C@H](CSC1=CC=CC=C1)NC2=C(C=C(C=C2)S(=O)(=O)NC(=O)C3=CC=C(C=C3)N4CCC(CC4)[C@H](C5=CC=CC=C5C6=CC=C(C=C6)Cl)O)S(=O)(=O)C(F)(F)F)CCO [AZD4320] (first compound max 1 µM, 7x7, partner max 1 µM) | 0.212 | 0.216 |  |  | 0.797 |  | 0.974 |  | 0.173 | 0.252 | 0.613 |  |  | 1 | 0.275 | 0.566 | 0.912 | 0.722 |  | 0.411 |

Source: the supplement of paper PMC11061612
